In ChEMBL document CHEMBL1138168, “Imidazo[1,2-a]pyrimidines as functionally selective GABA(A) ligands” (Bioorg Med Chem Lett, 2006):
Activity calls are given as the source filed them. The calls are words filed in the database; no cut-off is given here.

Legend:
[1] = biological target: T1, GABA-A receptor; alpha-1/beta-3/gamma-2 (Homo sapiens, UniProt P14867+P18507+P28472); test: Displacement of [3H]Ro 15-1788 from recombinant human GABA-Aalpha1 receptor plus beta-3-gamma-2 expressed in L(tk-) cells; type: cell-based
T1 sequence (P14867 whole entry): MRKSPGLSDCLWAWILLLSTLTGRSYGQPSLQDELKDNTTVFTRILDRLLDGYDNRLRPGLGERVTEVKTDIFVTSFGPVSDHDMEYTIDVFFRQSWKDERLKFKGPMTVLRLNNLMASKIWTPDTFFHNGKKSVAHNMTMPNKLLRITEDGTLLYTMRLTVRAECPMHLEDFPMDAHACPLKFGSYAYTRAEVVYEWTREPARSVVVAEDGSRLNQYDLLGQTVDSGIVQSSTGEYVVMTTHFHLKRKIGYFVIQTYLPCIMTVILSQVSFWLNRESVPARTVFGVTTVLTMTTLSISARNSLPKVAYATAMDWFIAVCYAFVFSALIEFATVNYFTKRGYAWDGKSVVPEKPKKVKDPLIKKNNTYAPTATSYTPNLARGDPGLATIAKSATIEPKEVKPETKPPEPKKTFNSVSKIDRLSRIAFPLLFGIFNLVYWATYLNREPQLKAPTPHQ
T1 sequence (P18507 whole entry): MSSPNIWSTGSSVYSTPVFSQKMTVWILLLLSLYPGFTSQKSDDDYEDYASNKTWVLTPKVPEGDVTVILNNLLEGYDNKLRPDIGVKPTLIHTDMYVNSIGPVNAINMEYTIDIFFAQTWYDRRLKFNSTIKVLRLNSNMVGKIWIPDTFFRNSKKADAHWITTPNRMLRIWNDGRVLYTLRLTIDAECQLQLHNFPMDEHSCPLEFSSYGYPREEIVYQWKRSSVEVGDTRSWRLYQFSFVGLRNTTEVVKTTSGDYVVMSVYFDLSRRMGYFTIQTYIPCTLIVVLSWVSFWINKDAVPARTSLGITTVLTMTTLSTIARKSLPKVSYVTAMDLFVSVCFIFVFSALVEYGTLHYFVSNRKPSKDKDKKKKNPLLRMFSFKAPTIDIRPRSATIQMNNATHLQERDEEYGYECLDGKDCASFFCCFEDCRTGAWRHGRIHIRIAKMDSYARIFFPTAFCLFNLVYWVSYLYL
T1 sequence (P28472 whole entry): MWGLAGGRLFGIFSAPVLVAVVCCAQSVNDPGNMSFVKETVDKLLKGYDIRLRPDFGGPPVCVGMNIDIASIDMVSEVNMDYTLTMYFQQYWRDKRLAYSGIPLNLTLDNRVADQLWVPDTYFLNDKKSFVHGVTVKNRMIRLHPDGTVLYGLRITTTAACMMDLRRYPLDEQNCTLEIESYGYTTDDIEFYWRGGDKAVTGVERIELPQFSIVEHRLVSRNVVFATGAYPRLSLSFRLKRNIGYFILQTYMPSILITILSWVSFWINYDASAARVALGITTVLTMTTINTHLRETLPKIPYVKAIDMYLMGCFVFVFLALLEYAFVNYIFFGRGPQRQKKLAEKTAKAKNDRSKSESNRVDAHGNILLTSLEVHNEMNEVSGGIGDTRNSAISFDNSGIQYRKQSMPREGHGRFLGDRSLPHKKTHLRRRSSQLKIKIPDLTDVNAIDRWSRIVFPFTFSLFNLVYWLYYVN

[2] = biological target: T2, GABA-A receptor; alpha-3/beta-3/gamma-2 (Homo sapiens, UniProt P18507+P28472+P34903); test: Displacement of [3H]Ro 15-1788 from recombinant human GABA-Aalpha3 receptor plus beta-3-gamma-2 expressed in L(tk-) cells; type: cell-based
T2 sequence (P18507 whole entry): T1 sequence (P18507 whole entry)
T2 sequence (P28472 whole entry): T1 sequence (P28472 whole entry)
T2 sequence (P34903 whole entry): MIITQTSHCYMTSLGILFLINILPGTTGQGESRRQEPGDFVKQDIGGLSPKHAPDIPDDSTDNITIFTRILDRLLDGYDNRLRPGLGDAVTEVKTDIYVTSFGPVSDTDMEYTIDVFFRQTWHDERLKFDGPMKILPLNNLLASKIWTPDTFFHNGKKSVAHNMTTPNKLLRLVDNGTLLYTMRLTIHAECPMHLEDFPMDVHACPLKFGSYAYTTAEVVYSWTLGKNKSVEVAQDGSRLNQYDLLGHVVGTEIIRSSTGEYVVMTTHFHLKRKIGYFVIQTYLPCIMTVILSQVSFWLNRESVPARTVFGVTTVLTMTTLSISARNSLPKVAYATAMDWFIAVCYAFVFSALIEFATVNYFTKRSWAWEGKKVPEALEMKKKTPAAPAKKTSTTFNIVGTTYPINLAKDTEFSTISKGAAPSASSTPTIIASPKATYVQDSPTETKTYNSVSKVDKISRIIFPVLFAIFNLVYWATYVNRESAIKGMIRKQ

[3] = biological target: GABA-A receptor; alpha-5/beta-3/gamma-2 (Homo sapiens) (UniProt P18507+P28472+P31644); test: Displacement of [3H]Ro 15-1788 from recombinant human GABA-Aalpha5 receptor plus beta3gamma2 expressed in L(tk-) cells; type: cell-based
[4] = Metabolism in dog liver microsomes at 1 uM
[5] = biological target: T3, GABA-A receptor; alpha-3/beta-3/gamma-2 (Homo sapiens) (UniProt P18507+P28472+P34903); test: Efficacy against recombinant human GABA-Aalpha3 receptor plus beta-3-gamma-2 as measured by modulation of chloride ion flux; type: functional
[6] = biological target: T4, GABA-A receptor; alpha-1/beta-3/gamma-2 (Homo sapiens) (UniProt P14867+P18507+P28472); test: Efficacy against recombinant human GABA-Aalpha1 receptor plus beta-3-gamma-2 as measured by modulation of chloride ion flux; type: functional
[7] = biological target: T3, GABA-A receptor; alpha-3/beta-3/gamma-2 (Homo sapiens); test: Efficacy against recombinant human GABA-Aalpha3 receptor plus beta-3-gamma-2 expressed in L(tk-) cells by whole cell patch clamp method; type: functional, cell-based
[8] = biological target: T4, GABA-A receptor; alpha-1/beta-3/gamma-2 (Homo sapiens); test: Efficacy against recombinant human GABA-Aalpha1 receptor plus beta-3-gamma-2 expressed in L(tk-) cells by whole cell patch clamp method; type: functional, cell-based
Mus musculus = test: Proconvulsant activity in Swiss Webster mice at 10 mg/kg, ip by pentylenetetrazole assay; type: ADME, organism-based; set-up: dose 10 mg/kg, route intraperitoneal; conditions: in vivo
[9] = biological target: GABA-A receptor; anion channel (Rattus norvegicus) (UniProt O09028+P15431+P18506+P18508+P19969+P20236+P23574+P23576+P28471+P28473+P30191+P62813+P63079+P63138+Q91ZM7+Q9ES14); test: Receptor occupancy in vivo by displacement of [3H]Ro 15-1788 binding from GABA-A receptor in rat at 1 mg/kg, po; type: functional, organism-based; set-up: dose 1 mg/kg
Canis familiaris = species on record: Canis familiaris; test: Stability in dog liver microsomes; type: ADME, Canis lupus familiaris, Microsome
[10] = Rat brain to plasma ratio at 1 mg/kg, po; type: ADME, organism-based; set-up: dose 1 mg/kg, route oral; conditions: brain and plasma
Plasma = test: Receptor occupancy in plasma of rat at 1 mg/kg, po; type: functional
Homo sapiens = species on record: Homo sapiens; test: Stability in human liver microsomes; type: ADME, Microsome

Row | Structure (SMILES) | Ki [1] [nM] | Ki [2] [nM] | Efficacy [5] [%] | Efficacy [6] [%] | Efficacy [7] [%] | further results
1 | N#Cc1ccccc1-c1ccnc(-c2cnc3nc(C(F)(F)F)ccn23)n1 | > 33 | > 33 |  |  |  | 
2 | COc1cc(-c2cnc3nc(C(F)(F)F)ccn23)ccn1 | 29 | > 33 |  |  |  | 
3 | Fc1ccccc1-c1cc(-c2cnc3nc(C(F)(F)F)ccn23)ccn1 | 8.3 | 14 | 23 | 6 |  | 
4 | FC(F)(F)c1ccn2c(-c3cc(Cl)ccn3)cnc2n1 | > 33 | > 33 |  |  |  | 
5 | FC(F)(F)c1ccn2c(-c3ccccn3)cnc2n1 | 9.1 | 11 | -7 | -40 |  | 
6 | N#Cc1ccccc1-c1cncc(-c2cnc3nc(C(F)(F)F)ccn23)c1 | 18 | > 33 | -39 | -55 |  | 
7 | FC(F)(F)c1ccn2c(-c3cc(Cl)ncn3)cnc2n1 | > 33 | > 33 |  |  |  | 
8 | Fc1cccc(-c2cc(-c3cnc4nc(C(F)(F)F)ccn34)ccn2)c1 | > 33 | > 33 |  |  |  | 
9 | N#Cc1ccccc1-c1ccnc(-c2cnc3nc(C(F)(F)F)ccn23)c1 | > 33 | > 33 |  |  |  | 
10 | N#Cc1ccccc1-c1cccc(-c2cnc3nc(C(F)(F)F)ccn23)c1 |  |  | 53 | 10 | 59 | Efficacy [8]: 19%; metabolized at 1 µM [4]: 100%

Further lines, with some results ahead:

Row | Ki [1] [nM] | Ki [2] [nM] | Efficacy [5] [%] | Efficacy [6] [%] | Efficacy [7] [%] | Structure (SMILES) | further results
11 | 1 | 1.4 | -15 | -29 |  | N#Cc1ccccc1-c1nccc(-c2cnc3nc(C(F)(F)F)ccn23)n1 | Activity [3]: Active; metabolized at 1 µM [4]: 56%
12 | 0.31 | 0.88 | -40 | -24 |  | FC(F)(F)c1cccc(-c2cnc3nc(C(F)(F)F)ccn23)n1 | 
13 | 1.2 | 1.7 | -9 | -22 | -51.6 | COc1cccc(-c2cnc3nc(C(F)(F)F)ccn23)n1 | Efficacy [8]: -41.4%
14 | 0.36 | 0.46 | 10 | -8 | -22 | N#Cc1ccccc1-c1cccc(-c2cnc3nc(C(F)(F)F)ccn23)n1 | Activity [3]: Active; metabolized at 1 µM [4]: 15%
15 | 0.31 | 0.68 | 2 | 11 |  | FC(F)(F)c1ccn2c(-c3cccc(Br)n3)cnc2n1 | 
16 | 0.93 | 2 | -19 | -22 | -24.9 | FC(F)(F)c1ccn2c(-c3ccnc(Cl)n3)cnc2n1 | Activity (Mus musculus): Inverse agonist
17 | 0.99 | 2.2 | 21 | 9 | 22 | N#Cc1cc(F)ccc1-c1cc(-c2cnc3nc(C(F)(F)F)ccn23)ccn1 | Activity [9]: 50%; Stability (Canis familiaris): < 5%; Kp [10]: 0.73; Activity (Plasma): 0.15 µM; Efficacy [8]: 0%; Stability (Homo sapiens): < 5%
18 | 1.9 | 13 |  |  |  | CCO/N=C(\C)c1ccc2c(c1)ncn2-c1cccc(-c2cccnc2)c1 | 
19 | 2.5 | 2.9 | 43 | 4 | 45 | N#Cc1ccccc1-c1cc(-c2cnc3nc(C(F)(F)F)ccn23)ccn1 | Activity [3]: Active; Efficacy [8]: 15%; metabolized at 1 µM [4]: 4%
20 | 5.8 | 6.1 | 54 | 35 |  | COc1ccccc1-c1cc(-c2cnc3nc(C(F)(F)F)ccn23)ccn1 | 
